Test results from patent publication US20240066085A1, “MATRIX METALLOPROTEASE 1 EXPRESSION INHIBITOR, SKIN EXTERNAL AGENT, AND USE FOR INHIBITION OF MATRIX METALLOPROTEASE 1 EXPRESSION” (NATIONAL UNIVERSITY CORPORATION KOBE UNIVERSITY, priority 2020, published 2024).

How the values were obtained:
[1] = test system: ERK and MEK phosphorylation; assay: UVA-induced phosphorylation of ERK and MEK in HaCaT after PKCδ inhibitor pretreatment; type: cell-based, human; settings: HaCaT pretreated with PKCδ inhibitor, then UVA irradiation
Method: (§1) The present inventors clarified an expression mechanism of MMP-1 through an experiment. […] The experiment was performed by irradiating HaCaT (epidermal keratinocyte cell line established from a human adult under special ca 2+ concentration and temperature conditions) with ultraviolet rays (UVA).
However, when a pretreatment of adding rotterlin being a PKCδ inhibitor to HaCaT was performed, and then UVA irradiation was performed on HaCaT, induced expression of phosphorylation of ERK and MEK was suppressed. Therefore, it was clarified that: the activity of PKCδ induces phosphorylation of MEK and ERK downstream of PKC6; and expression of MMP-1 is promoted through c-Jun and the like.

[2] = test system: MMP-1 expression; assay: UVA-induced MMP-1 expression in HaCaT after PKCδ inhibitor pretreatment; type: cell-based, human; settings: HaCaT pretreated with PKCδ inhibitor, then UVA irradiation
Method: as §1
When UVA irradiation is performed on HaCaT, the MMP-1 expression amount increases in an irradiation-dependent manner. […] Therefore, it was clarified that PKCδ is involved in expression pathway of MMP-1.

Structure (SMILES): CC(=O)c1c(O)c(C)c(O)c(Cc2c(O)c3c(c(C(=O)/C=C/c4ccccc4)c2O)OC(C)(C)C=C3)c1O [rotterlin]
- induced expression of phosphorylation of ERK and MEK [1]: suppressed
- MMP-1 expression [2]: significantly suppressed
